Several values for one entry are separate records, joined by “and”; a condition that tells them apart may be missing. Equal entries are not always repeated. Records with an inconclusive call do not appear. Starred links: 1 amine or outer side, 2 acyl side, 3 side chain; linkers in the order of their positions; H or OH if unused. Positions of bridges follow the written chain, without caps; N, C: chain ends. Non-standard residues stand in square brackets, D forms with d. Residues, ends and D or L forms follow the SMILES beside them. Chains are numbered I, II in the order given. *: point of attachment. Actinocin(9to1) = Cc1c2oc3c(C)ccc(C(=O)[*:1])c3nc-2c(C(=O)[*:2])c(N)c1=O; Quinoxaline2carbonyl = O=C(c1cnc2ccccc2n1)*; NMeV = CN[CH](C(=O)O)C(C)C; NMeC = CN[CH](CS)C(=O)O; Sar = CNCC(=O)O

For the test, the system named is CD8F1 mice, subcutaneous mammary adenocarcinoma, T/C%. Kind of test: NCI In Vivo Anticancer Drug Screen. Data for tumor model Mammary Adenocarcinoma CD8F1 (subcutaneous) in CD8F1. Conditions: higher = larger tumour. An outline of the steps: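 Antitumor activity is assessed in transplantable-tumor mice by comparing the treated group with a vehicle-treated control group. Survival or tumor size serves as the measure, reported as T divided by C.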

Setting [1] is: endpoint: median tumor weight change, dose: 125.0 mg/kg/injection, schedule: Q01DX001 (ip), vehicle: saline.
Where [2] appears, read: endpoint: median tumor weight change, dose: 250.0 mg/kg/injection, schedule: Q01DX001 (ip), vehicle: Klucel (hydroxypropylcellulose) (HPC).
[3] abbreviates: endpoint: median tumor weight change, dose: 62.5 mg/kg/injection, schedule: Q01DX001 (ip), vehicle: Klucel (hydroxypropylcellulose) (HPC).
Where [4] appears, read: endpoint: median tumor weight change, dose: 5.0 mg/kg/injection, schedule: Q01DX001 (ip), vehicle: saline with Tween-80.

As for `CC1NC(=O)C(NC(=O)c2cnc3ccccc3n2)COC(=O)C(C(C)C)N(C)C(=O)C2CSSCC(C(=O)N(C)C(C(C)C)C(=O)OCC(NC(=O)c3cnc4ccccc4n3)C(=O)NC(C)C(=O)N2C)N(C)C1=O` (stereo unspecified) (I: Quinoxaline2carbonyl-SA[NMeC][NMeV] / II: Quinoxaline2carbonyl-SA[NMeC][NMeV]; ester I:1-II:C, I:C-II:1; disulfide I:3-II:3; configuration not given here), the T/C (endpoint: median tumor weight change, dose: 25.0 micrograms/kg/injection, schedule: Q01DX001 (ip), vehicle: Klucel (hydroxypropylcellulose) (HPC)) is 77 % of control; the T/C (endpoint: median tumor weight change, dose: 50.0 micrograms/kg/injection, schedule: Q01DX001 (ip), vehicle: Klucel (hydroxypropylcellulose) (HPC)) is 91 % of control; the T/C (endpoint: median tumor weight change, dose: 100.0 micrograms/kg/injection, schedule: Q01DX001 (ip), vehicle: Klucel (hydroxypropylcellulose) (HPC)) is 89 % of control; the T/C (endpoint: median tumor weight change, dose: 200.0 micrograms/kg/injection, schedule: Q01DX001 (ip), vehicle: Klucel (hydroxypropylcellulose) (HPC)) was 68 % of control; the T/C (endpoint: median tumor weight change, dose: 400.0 micrograms/kg/injection, schedule: Q01DX001 (ip), vehicle: Klucel (hydroxypropylcellulose) (HPC)) was 59 % of control.
Consider `CC(=O)OCC1OC(n2ncc(=O)[nH]c2=O)C(OC(C)=O)C1OC(C)=O` (stereo unspecified), for which the T/C was 165 % of control under setting [1]; 111 % of control (endpoint: median tumor weight change, dose: 250.0 mg/kg/injection, schedule: Q01DX001 (ip), vehicle: saline); 162 % of control (endpoint: median tumor weight change, dose: 500.0 mg/kg/injection, schedule: Q01DX001 (ip), vehicle: saline); 117 % of control (endpoint: median tumor weight change, dose: 1000.0 mg/kg/injection, schedule: Q01DX001 (ip), vehicle: saline).
Consider `O=C1CC2(C(=O)N1CN1CCOCC1)c1ccccc1-c1ccccc12`, for which the T/C runs as follows: under setting [2], 167 % of control; (endpoint: median tumor weight change, dose: 500.0 mg/kg/injection, schedule: Q01DX001 (ip), vehicle: Klucel (hydroxypropylcellulose) (HPC)) 102 % of control; (endpoint: median tumor weight change, dose: 1000.0 mg/kg/injection, schedule: Q01DX001 (ip), vehicle: Klucel (hydroxypropylcellulose) (HPC)) 40 % of control.
For `COc1cc(C[C@H]2c3cc(OC)c(OC)cc3CCN2C)c(Oc2cc3c(cc2OC)-c2c(OC)c(OC)cc4c2[C@H](C3)N(C)CC4)cc1OC`, the T/C by setting is: (endpoint: median tumor weight (est.), dose: 12.5 mg/kg/injection, schedule: Q07DX005 (ip), vehicle: saline) 118 % of control; (endpoint: median tumor weight (est.), dose: 50.0 mg/kg/injection, schedule: Q07DX005 (ip), vehicle: saline) 95 % of control; (endpoint: median tumor weight (est.), dose: 200.0 mg/kg/injection, schedule: Q07DX005 (ip), vehicle: saline) 52 % of control; (endpoint: median tumor weight (est.), dose: 400.0 mg/kg/injection, schedule: Q07DX005 (ip), vehicle: saline) 67 % of control.
As to `CC1(C)OCC(CO)(Nc2nc(N3CC3)nc(N3CC3)n2)CO1`, the T/C was 41 % of control (endpoint: median tumor weight (est.), dose: 1.25 mg/kg/injection, schedule: Q07DX005 (ip), vehicle: saline); 36 % of control (endpoint: median tumor weight (est.), dose: 2.5 mg/kg/injection, schedule: Q07DX005 (ip), vehicle: saline); 18 % of control (endpoint: median tumor weight (est.), dose: 5.0 mg/kg/injection, schedule: Q07DX005 (ip), vehicle: saline); 6 % of control (endpoint: median tumor weight (est.), dose: 10.0 mg/kg/injection, schedule: Q07DX005 (ip), vehicle: saline).
For the compound `CC1=CC2c3cccc4[nH]cc(c34)CC2N(C)C1` (stereo unspecified), the T/C (endpoint: median tumor weight change, dose: 25.0 mg/kg/injection, schedule: Q01DX001 (ip), vehicle: suspension in saline) was 115 % of control.
Take `OCC1OC(n2cnc3c2nnn2ccnc32)C(O)C1O` (stereo unspecified): the T/C (endpoint: mean tumor weight, dose: 37.5 mg/kg/injection, schedule: Q07DX005 (ip), vehicle: saline) is 93 % of control and 94 % of control; the T/C (endpoint: mean tumor weight, dose: 75.0 mg/kg/injection, schedule: Q07DX005 (ip), vehicle: saline) is 202 % of control and 91 % of control; the T/C (endpoint: mean tumor weight, dose: 150.0 mg/kg/injection, schedule: Q07DX005 (ip), vehicle: saline) is 103 % of control and 118 % of control.
For `Cc1cc(N/N=C/c2ccccn2)nc2ccccc12`, the T/C was 92 % of control (endpoint: median tumor weight change, dose: 31.25 mg/kg/injection, schedule: Q01DX001 (ip), vehicle: Klucel (hydroxypropylcellulose) (HPC)); 100 % of control under setting [3]; 96 % of control (endpoint: median tumor weight change, dose: 125.0 mg/kg/injection, schedule: Q01DX001 (ip), vehicle: Klucel (hydroxypropylcellulose) (HPC)); 59 % of control under setting [2].
In the case of `Nc1ncnc2c1nnn2C1OC(CO)C(O)C1O` (stereo unspecified), the T/C reads like this: under setting [3], 111 % of control; under setting [2], 39 % of control and 40 % of control.
As for `CC1=C[S+](c2ccccc2)c2cccc3cc4ccccc4c1c23` (stereo unspecified), the T/C was 103 % of control (endpoint: median tumor weight change, dose: 0.62 mg/kg/injection, schedule: Q01DX001 (ip), vehicle: saline with Tween-80); 98 % of control under setting [4]; 40 % of control and 59 % of control (endpoint: median tumor weight change, dose: 10.0 mg/kg/injection, schedule: Q01DX001 (ip), vehicle: saline with Tween-80).
Regarding `Cc1c2oc3c(C)ccc(C(=O)NC4C(=O)NC(C(C)C)C(=O)N5CCCC5C(=O)N(C)CC(=O)N(C)C(C(C)C)C(=O)OC4C)c3nc-2c(C(=O)NC2C(=O)NC(C(C)C)C(=O)N3CCCC3C(=O)N(C)CC(=O)N(C)C(C(C)C)C(=O)OC2C)c(N)c1=O` (stereo unspecified) (I: TVP[Sar][NMeV] / II: TVP[Sar][NMeV]; ester I:1-I:C, II:1-II:C; linker I:N-II:N via Actinocin(9to1); configuration not given here), the T/C is 26 % of control and 30 % of control (endpoint: median tumor weight (est.), dose: 0.5 mg/kg/injection, schedule: Q07DX005 (ip), vehicle: saline); 3 % of control and 20 % of control (endpoint: median tumor weight (est.), dose: 1.0 mg/kg/injection, schedule: Q07DX005 (ip), vehicle: saline).
On to `CCCCc1ccc2nc(NC(=O)OC)[nH]c2c1`, for which the T/C runs as follows: (endpoint: mean tumor weight, dose: 12.5 mg/kg/injection, schedule: Q07DX006 (ip), vehicle: saline with Tween-80) 196 % of control; (endpoint: mean tumor weight, dose: 100.0 mg/kg/injection, schedule: Q07DX006 (ip), vehicle: saline with Tween-80) 120 % of control; (endpoint: mean tumor weight, dose: 200.0 mg/kg/injection, schedule: Q07DX006 (ip), vehicle: saline with Tween-80) 161 % of control; (endpoint: mean tumor weight, dose: 400.0 mg/kg/injection, schedule: Q07DX006 (ip), vehicle: saline with Tween-80) 67 % of control; (endpoint: median tumor weight (est.), dose: 12.5 mg/kg/injection, schedule: Q07DX005 (ip), vehicle: saline with Tween-80) 55 % of control; (endpoint: median tumor weight (est.), dose: 25.0 mg/kg/injection, schedule: Q07DX005 (ip), vehicle: saline with Tween-80) 61 % of control. Besides, the T/C by setting is: (endpoint: median tumor weight (est.), dose: 50.0 mg/kg/injection, schedule: Q07DX005 (ip), vehicle: saline with Tween-80) 122 % of control; (endpoint: median tumor weight (est.), dose: 100.0 mg/kg/injection, schedule: Q07DX005 (ip), vehicle: saline with Tween-80) 84 % of control; (endpoint: median tumor weight (est.), dose: 200.0 mg/kg/injection, schedule: Q07DX005 (ip), vehicle: saline with Tween-80) 49 % of control.
For the compound `CN(C)CCC(=O)C(=Cc1ccc(O)cc1)C(=O)CCN(C)C`, the T/C was 96 % of control (endpoint: median tumor weight change, dose: 50.0 mg/kg/injection, schedule: Q01DX001 (ip), vehicle: suspension in saline); 90 % of control (endpoint: median tumor weight change, dose: 62.5 mg/kg/injection, schedule: Q01DX001 (ip), vehicle: saline); 87 % of control (endpoint: median tumor weight change, dose: 100.0 mg/kg/injection, schedule: Q01DX001 (ip), vehicle: suspension in saline); 62 % of control under setting [1].
Take `O=[N+]([O-])c1ccc(Cl)c([N+](=O)[O-])c1`: the T/C (endpoint: median tumor weight (est.), dose: 15.0 mg/kg/injection, schedule: Q07DX005 (ip), vehicle: saline with Tween-80) was 78 % of control; the T/C (endpoint: median tumor weight (est.), dose: 120.0 mg/kg/injection, schedule: Q07DX005 (ip), vehicle: saline with Tween-80) was 61 % of control and 83 % of control; the T/C (endpoint: median tumor weight (est.), dose: 240.0 mg/kg/injection, schedule: Q07DX005 (ip), vehicle: saline with Tween-80) is 65 % of control.
Consider `CC1=CC2C(O)(CC(CO)=CC3C4C(C)(C)C4(OC(=O)c4ccccc4)C(OC(=O)c4ccccc4)C(C)C32O)C1=O` (stereo unspecified), for which the T/C runs as follows: (endpoint: median tumor weight change, dose: 0.63 mg/kg/injection, schedule: Q01DX001 (ip), vehicle: saline with Tween-80) 88 % of control; (endpoint: median tumor weight change, dose: 1.25 mg/kg/injection, schedule: Q01DX001 (ip), vehicle: saline with Tween-80) 58 % of control; under setting [4], 96 % of control.
In the case of `CCC(=O)O[C@H]1CC[C@H]2[C@@H]3CCC4=CC(=O)CC[C@]4(C)[C@H]3CC[C@]12C`, the T/C is 99 % of control (endpoint: median tumor weight (est.), dose: 160.0 mg/kg/injection, schedule: Q07DX005 (ip), vehicle: Klucel (hydroxypropylcellulose) (HPC)) and 48 % of control (endpoint: median tumor weight (est.), dose: 640.0 mg/kg/injection, schedule: Q07DX005 (ip), vehicle: Klucel (hydroxypropylcellulose) (HPC)).

(Values after PubChem BioAssay AID220 (DTP/NCI, 2004).)
